The experiment deals with T1, GABAA2 receptors (α2, β3, γ3 receptor subunits transfected into Sf9 cells) (Homo sapiens, UniProt P47869+Q99928).
T1 construct: host or cells: Sf9 cells (membranes)
T1 sequence (P47869 29-451): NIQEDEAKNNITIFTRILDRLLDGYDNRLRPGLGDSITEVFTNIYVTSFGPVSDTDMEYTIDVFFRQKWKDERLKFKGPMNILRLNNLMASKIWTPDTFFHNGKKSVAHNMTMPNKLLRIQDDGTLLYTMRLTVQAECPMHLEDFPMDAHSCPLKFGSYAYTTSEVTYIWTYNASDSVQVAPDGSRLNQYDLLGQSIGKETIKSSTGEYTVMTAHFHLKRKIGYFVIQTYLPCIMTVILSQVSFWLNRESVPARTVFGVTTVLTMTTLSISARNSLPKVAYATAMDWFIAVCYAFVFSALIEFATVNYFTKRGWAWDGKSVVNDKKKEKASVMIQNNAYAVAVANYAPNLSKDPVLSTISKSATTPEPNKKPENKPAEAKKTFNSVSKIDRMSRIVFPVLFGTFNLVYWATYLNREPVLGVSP
T1 sequence (P28472 26-473 partner): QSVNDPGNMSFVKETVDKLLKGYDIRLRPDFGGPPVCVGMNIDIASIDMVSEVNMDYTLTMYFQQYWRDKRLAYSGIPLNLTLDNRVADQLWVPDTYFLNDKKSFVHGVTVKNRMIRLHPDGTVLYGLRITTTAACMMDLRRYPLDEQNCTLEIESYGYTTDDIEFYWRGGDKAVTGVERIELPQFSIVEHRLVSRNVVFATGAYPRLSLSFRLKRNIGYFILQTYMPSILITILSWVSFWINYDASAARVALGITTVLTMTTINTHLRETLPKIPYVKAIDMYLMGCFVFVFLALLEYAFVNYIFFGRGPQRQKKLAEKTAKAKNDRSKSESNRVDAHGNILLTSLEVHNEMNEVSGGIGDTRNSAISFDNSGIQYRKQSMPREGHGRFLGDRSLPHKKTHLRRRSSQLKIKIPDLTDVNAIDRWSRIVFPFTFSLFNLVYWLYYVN
T1 sequence (Q99928 18-467): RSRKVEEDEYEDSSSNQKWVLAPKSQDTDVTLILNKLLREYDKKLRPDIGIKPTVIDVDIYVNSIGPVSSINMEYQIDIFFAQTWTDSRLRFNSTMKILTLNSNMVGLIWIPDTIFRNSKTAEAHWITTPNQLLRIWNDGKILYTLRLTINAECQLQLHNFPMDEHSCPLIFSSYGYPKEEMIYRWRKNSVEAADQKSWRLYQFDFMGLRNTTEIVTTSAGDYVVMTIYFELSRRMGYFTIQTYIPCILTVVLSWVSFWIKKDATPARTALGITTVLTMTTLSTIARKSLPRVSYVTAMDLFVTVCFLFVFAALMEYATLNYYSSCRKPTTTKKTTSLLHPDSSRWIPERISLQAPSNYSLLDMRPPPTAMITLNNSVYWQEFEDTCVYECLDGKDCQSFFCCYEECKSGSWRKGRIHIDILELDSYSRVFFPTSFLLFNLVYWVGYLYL
The experiment is described as follows: GABAA2 binding method ([3H]-flunitrazepam displacement). The note with it: [3H]-flunitrazepam ~2 nM, Sf9 membranes, 1 hr at 4° C. Here is the method:
In some embodiments, the binding test was directed to a subtype of GABAA receptors, such as GABAA1 receptors (i.e., those containing the α1 subunit), GABAA2 receptors (i.e., those containing the α2 subunit), GABAA3 receptors (i.e., those containing the α3 subunit) and GABAA5 receptors (i.e., those containing the α5 subunit).
• Assay and Wash Buffer: 50 mM Tris-Citrate, 200 mM NaCl, pH 7.8 Compounds at 10 mM in DMSO: Put 75 μl in column 1 of compound plate.
Flumazenil, 10 mM (for NSB)
[^3H]-Flunitrazepam (Cat #NET567): Prepare 10× stock=20 nM, [F} in assay=˜2 nM
1. […] Add 5 ul of 30 uM flumazenil to wells 12 D-E for 50% control wells.
2. Spot 2 μl of compound dilutions into dry plate (Automation Program 3). Manually spot 2 μl 10 mM flumazenil into wells 12 F-H for nonspecific control.
3. Make 1:100 dilution in assay buffer (2 μl into 200 μl) and dispense 25 μl compound into assay plates (Automation Program 4).
4. Dispense 200 μl membranes into assay plate (Automation Program 5).
5. Add 25 μl [^3H]-Flunitrazepam (Automation Program 6). Incubate for 1 hr at 4° C.
6. Collect membranes on a cell harvester onto GF/B filter plates (pre-wet with dH2O and wash 5× 400 μl/well, with cold assay buffer. (First 3 washes are considered hot; last two are cold.)
7. Dry plates for 2-3 hours at RT.
8. Add 40 μl Microscint 40/well (Automation Program 7); seal plates. Count on a TopCount.
Data is analyzed by calculating percent of control, IC50, and Ki in an XLfit template. The following formula is used in the templates: […]

Results on 69 molecules are retold here after patent US20080318925A1 (ASTRAZENECA AB, priority 2007, published 2008).

Each structure is given as a SMILES string.

One may read the Ki as a measure of affinity in units of concentration, obtained from inhibition or displacement. High values mean weaker binding, low ones tighter binding. As for `CCCNC(=O)c1nnc2c(-c3ccc(OC)nc3OC)cccc2c1N`, the Ki is 0.56 nM. In turn, `CCCNC(=O)c1nnc2c(-c3cc(C(=O)N4CCC4)ccc3OC)cccc2c1N` registered a Ki of 18.4 nM. Molecule `Nc1c(C(=O)NCC2CC2)nnc2c(-c3ccccc3)cccc12` registered an inhibitory constant (Ki) of 18.6 nM.

`CCNC(=O)c1nnc2c(-c3cnc(OC)nc3OC)cccc2c1N` returned a Ki of 14.4 nM. The value for `CCCNC(=O)c1nnc2c(-c3ccc4ccccc4c3)cccc2c1N` was 43.3 nM; that for `CCCNC(=O)c1nnc2c(-c3cccnc3F)cccc2c1N` was 1.13 nM. For `CCCNC(=O)c1nnc2c(-c3cc(OC)cc(OC)c3)c(F)ccc2c1N` the value was 0.552 nM. `COc1cccc(F)c1-c1cccc2c(N)c(C(=O)NC3CC3)nnc12` yielded a Ki of 0.698 nM. The value for `CCCNC(=O)c1nnc2c(-c3cnc(OC)nc3OC)c(Cl)ccc2c1N` was 2.73 nM; that for `COc1ccc(C)cc1-c1cccc2c(N)c(C(=O)NC3CC3)nnc12` was 15.2 nM. For `CCCNC(=O)c1nnc2c(-c3ccc(OC)cc3OC)c(Cl)ccc2c1N` the value was 5.71 nM; for `CCCCNC(=O)c1nnc2c(-c3cc(C)ccc3OC)cccc2c1N`, 13.3 nM; for `CCCNC(=O)c1nnc2c(-c3cnc(OC)c(F)c3)cccc2c1N`, 22.1 nM.

Take `CCCNC(=O)c1nnc2c(-c3cc(OC)cc(OC)c3)cccc2c1N`: the Ki worked out at 5 nM. Regarding `CCCNC(=O)c1nnc2c(-c3ccc(OC)cc3OC)cccc2c1N`, the affinity, expressed as Ki, was 2.5 nM. For `CCCNC(=O)c1nnc2c(-c3ccc(F)cc3)cccc2c1N` the value was 9.58 nM.

For `CCCNC(=O)c1nnc2c(-c3ccsc3)cccc2c1N`, affinity was put at a Ki of 18.6 nM.

As for `CCCNC(=O)c1nnc2c(-c3cnc(OC)nc3OC)c(F)ccc2c1N`, affinity was put at a Ki of 0.918 nM. Molecule `CCCNC(=O)c1nnc2c(-c3cc(F)cc(F)c3OC)c(F)ccc2c1N` showed an inhibition constant Ki of 5.78 nM. `CCCNC(=O)c1nnc2c(-c3cncc(OC)c3)cccc2c1N` had an inhibition constant Ki of 4.21 nM.

As for `CCCNC(=O)c1nnc2c(-c3ccc(OC)cc3OC)c(C#N)ccc2c1N`, the affinity corresponds to a Ki of 2.69 nM. For `CCCNC(=O)c1nnc2c(-c3cccc(Cl)c3)cccc2c1N` the value was 12.3 nM; for `CCCNC(=O)c1nnc2c(-c3cc(C)ccc3OC)c(F)ccc2c1N`, 0.937 nM. For `CCCNC(=O)c1nnc2c(-c3ccc(F)cc3OC)cccc2c1N` the value was 4.34 nM; for `CCCNC(=O)c1nnc2c(-c3cnc4ccccc4c3)cccc2c1N`, 12.3 nM; for `CCCNC(=O)c1nnc2c(-c3cc(F)ccc3F)cccc2c1N`, 0.996 nM. On to `CCCNC(=O)c1nnc2c(-c3cc(F)ccc3C)c(F)ccc2c1N`, for which the Ki came to 0.735 nM. Molecule `CCCNC(=O)c1nnc2c(-c3ccc(N(C)C)cc3)cccc2c1N` gave a Ki of 26.6 nM. The value for `CCCNC(=O)c1nnc2c(-c3ccc(OC)c(F)c3)cccc2c1N` was 20.2 nM.

`CCNC(=O)c1nnc2c(-c3cnc(OC)c(F)c3)cccc2c1N` gave an inhibition constant (Ki) of 9 nM. In turn, `COc1ccc(-c2cccc3c(N)c(C(=O)NC4CCC4)nnc23)c(OC)c1` registered an inhibition constant Ki of 0.927 nM. For the molecule `CCCNC(=O)c1nnc2c(-c3cc(Cl)cc(Cl)c3)c(F)ccc2c1N`, affinity was put at a Ki of 16.1 nM. With `CCCNC(=O)c1nnc2c(-c3ccc(F)cc3OCC)c(F)ccc2c1N`, the Ki was found to be 1.03 nM. For `CCCNC(=O)c1nnc2c(-c3nc(Br)ccc3OC)cccc2c1N` the value was 7.51 nM. The molecule `CCCCNC(=O)c1nnc2c(-c3cnccc3OC)cccc2c1N` came in with an inhibition constant (Ki) of 1.84 nM.

`CCCNC(=O)c1nnc2c(-c3ccc(F)cc3OC)c(F)ccc2c1N` registered a Ki of 0.565 nM. For `CCCNC(=O)c1nnc2c(-c3ccc(Cl)cc3)c(F)ccc2c1N` the value was 8.72 nM; for `CCCNC(=O)c1nnc2c(-c3cccc(OC)c3)cccc2c1N`, 4.34 nM; for `COc1ccc(-c2cccc3c(N)c(C(=O)NC4CC4)nnc23)c(OC)n1`, 1 nM. The value for `CCNC(=O)c1nnc2c(-c3cc(C)ccc3OC)cccc2c1N` was 10.5 nM; that for `CCCNC(=O)c1nnc2c(-c3cccc(C(=O)N4CCC4)c3)cccc2c1N` was 3.44 nM; that for `CCCNC(=O)c1nnc2c(-c3cc(F)c(OC)cc3F)cccc2c1N` was 1.49 nM.

`CNC(=O)c1nnc2c(-c3cc(C)ccc3OC)cccc2c1N` registered a Ki of 35.8 nM.

Turning to `CCCNC(=O)c1nnc2c(-c3ccc(C)cc3)cccc2c1N`, the inhibitory constant (Ki) came to 29 nM. `CCCNC(=O)c1nnc2c(-c3cccnc3OC)cccc2c1N`: affinity was put at a Ki of 2.1 nM.

For `CCCNC(=O)c1nnc2c(-c3cccc(C)c3C)c(F)ccc2c1N`, affinity was put at a Ki of 0.615 nM. The value for `CCCNC(=O)c1nnc2c(-c3cc(C)ccc3C)c(F)ccc2c1N` was 1.31 nM. The value for `CCCNC(=O)c1nnc2c(-c3cc(F)ccc3OC)cccc2c1N` was 10.5 nM. For `CCCNC(=O)c1nnc2c(-c3cc(C)c(OC)c(C)c3)cccc2c1N` the value was 35.8 nM; for `CCCNC(=O)c1nnc2c(-c3ccccc3C(F)(F)F)cccc2c1N`, 0.364 nM. `CCCNC(=O)c1nnc2c(-c3ccccc3)c(Cl)ccc2c1N` yielded an inhibitory constant (Ki) of 5.82 nM.

`CCCNC(=O)c1nnc2c(-c3cccc(F)c3F)cccc2c1N` registered a Ki of 0.558 nM. The value for `CCCNC(=O)c1nnc2c(-c3c(F)cccc3OC)c(F)ccc2c1N` was 0.341 nM; that for `CCCNC(=O)c1nnc2c(-c3cccc(OC)c3F)c(F)ccc2c1N` was 0.941 nM; that for `CCCNC(=O)c1nnc2c(-c3ccc(F)cc3F)cccc2c1N` was 1.72 nM. The value for `CCCNC(=O)c1nnc2c(-c3ccc(OC)cc3F)c(F)ccc2c1N` was 0.613 nM; that for `CCCNC(=O)c1nnc2c(-c3ccc(OC)cc3)cccc2c1N` was 15.4 nM; that for `CCCNC(=O)c1nnc2c(-c3ccc(F)c(F)c3)cccc2c1N` was 20 nM. For `CCCNC(=O)c1nnc2c(-c3ccc(OC)c(OC)c3OC)c(F)ccc2c1N` the value was 0.6 nM; for `CCCNC(=O)c1nnc2c(-c3cncc(C(=O)N4CCC4)c3)cccc2c1N`, 2.34 nM. `COc1ncccc1-c1cccc2c(N)c(C(=O)NC3CC3)nnc12` had a Ki of 0.501 nM. For `CCCNC(=O)c1nnc2c(-c3cc(F)ccc3OC)c(F)ccc2c1N` the value was 0.98 nM; for `CCCNC(=O)c1nnc2c(-c3ccccc3)c(F)ccc2c1N`, 1 nM. For `CCCNC(=O)c1nnc2c(-c3cc(C(F)(F)F)ccc3Cl)cccc2c1N` the value was 1.36 nM. The value for `COc1ccc(F)cc1-c1cccc2c(N)c(C(=O)NC3CC3)nnc12` was 8.22 nM; that for `CCCNC(=O)c1nnc2c(-c3cccc(C(=O)O)c3)cccc2c1N` was 53.8 nM; that for `CCCNC(=O)c1nnc2c(-c3cc(C)ccc3C)c(Cl)ccc2c1N` was 11.2 nM. `CCCNC(=O)c1nnc2c(-c3cc(OC)ccc3F)cccc2c1N` showed a Ki of 1.73 nM. The molecule `CCCNC(=O)c1nnc2c(-c3cc(F)ccc3C)cccc2c1N` displayed a Ki of 5.56 nM.
